pEC50, pIC50: −log10 of the molar value.
Key:
[1] = Human liver microsomes (HLM) assay; type: in vitro ADME; details: hepatic extraction ratio; 0.5 μM compound, 0.5 mg/mL microsomes, NADPH, 37° C.
Method in brief: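 Compound at 0.5 μM incubated at 37° C. with human liver microsomes (0.5 mg/mL) and NADPH (1 mM) in phosphate buffer pH 7.4, 1% organic solvent; sampled 0-30 minutes. Clapp (mL/min/kg) and Eh (%) derived from depletion rate constant.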

[2] = target: T1, glucocorticoid receptor (GR), recombinant full-length receptor protein (Homo sapiens, UniProt P04150); assay: Glucocorticoid receptor binding assay (fluorescence polarization kit); details: 4 nM receptor, 2.5 nM Fluormone GS1 tracer, 2h room temperature, read-out: GR binding ABS IC50
T1 construct: 4 nM recombinant, full-length receptor protein was incubated with increasing concentrations of GR ligand; purchased Life Technologies A-15897
T1 sequence (P04150 1-777): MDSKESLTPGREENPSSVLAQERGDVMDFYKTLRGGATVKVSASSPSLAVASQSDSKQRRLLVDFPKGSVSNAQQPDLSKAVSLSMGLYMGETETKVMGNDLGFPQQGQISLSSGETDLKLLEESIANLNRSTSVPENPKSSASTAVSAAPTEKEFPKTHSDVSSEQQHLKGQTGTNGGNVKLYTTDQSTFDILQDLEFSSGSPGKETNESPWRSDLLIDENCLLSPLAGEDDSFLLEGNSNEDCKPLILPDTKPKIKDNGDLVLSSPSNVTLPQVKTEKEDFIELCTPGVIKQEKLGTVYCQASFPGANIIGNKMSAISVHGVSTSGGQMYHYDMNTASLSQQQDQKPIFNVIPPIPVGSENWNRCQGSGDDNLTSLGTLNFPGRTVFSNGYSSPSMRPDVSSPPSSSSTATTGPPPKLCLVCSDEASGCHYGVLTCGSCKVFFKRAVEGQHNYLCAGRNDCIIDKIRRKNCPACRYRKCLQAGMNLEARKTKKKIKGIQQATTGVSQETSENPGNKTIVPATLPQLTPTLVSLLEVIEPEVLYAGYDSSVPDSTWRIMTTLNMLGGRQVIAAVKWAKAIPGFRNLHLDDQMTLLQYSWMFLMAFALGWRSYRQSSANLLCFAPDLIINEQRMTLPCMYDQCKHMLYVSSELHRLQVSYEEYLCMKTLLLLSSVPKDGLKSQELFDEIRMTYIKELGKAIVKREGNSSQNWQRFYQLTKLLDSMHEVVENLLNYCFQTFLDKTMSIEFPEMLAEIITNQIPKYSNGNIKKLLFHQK
Method: Test compounds were diluted in DMSO over seven orders of magnitude, further diluted in assay buffer and distributed into 384-well plates. The sensitivity limit of this assay was 2-4 nM.
Data were processed by sigmoidal curve fitting.
Absolute (Abs) IC50 and Emax were determined from the curve fits.

[3] = system: TNF alpha release from human PBMCs; assay: Inhibition of TNF alpha release from human PBMCs; type: cell-based; details: LPS 1 μg/ml, 18 hours, AlphaLISA
Method in brief: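 Fresh or thawed PBMCs in serum-free medium with 0.5% HSA, stimulated with 1 μg/ml LPS plus titrated compound for 18 h at 37° C. TNF-a in supernatant by AlphaLISA; window set with a reference PDE4 inhibitor at 100×IC50. EC50 and Emax from sigmoidal fits.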

Row | HLM assay Eh (%) [1] | pIC50 [2] | SMILES | pEC50 ([3]; PBMC) | pEC50 [3]
1 | * (extraction ratio (Eh)>90%) | > 7.00 | C[C@H](NC(=O)c1cnco1)[C@H](Oc1ccc(C(=O)O[C@H]2CCCN(C(=O)[C@H]3COC(=O)C3)C2)cc1)c1ccc(C2CC2)cc1 [Compound 50, [(3S)-1-[(3R)-5-oxotetrahydrofuran-3-carbonyl]-3-piperidyl] 4-[(1R,2S)-1-(4-cyclopropylphenyl)-2-(oxazole-5-carbonylamino)propoxy]benzoate] | > 7.00 | 
2 | * (extraction ratio (Eh)>90%) | > 7.00 | C[C@H](NC(=O)c1ccon1)[C@H](Oc1ccc(C(=O)O[C@H]2CCCN(C(=O)[C@H]3COC(=O)C3)C2)cc1)c1ccc(C2CC2)cc1 [Compound 51, [(3S)-1-[(3R)-5-oxotetrahydrofuran-3-carbonyl]-3-piperidyl] 4-[(1R,2S)-1-(4-cyclopropylphenyl)-2-(isoxazole-3-carbonylamino)propoxy]benzoate] | > 7.00 | 
3 | * (extraction ratio (Eh)>90%) | > 7.00 | Cc1cc(C(=O)N[C@@H](C)[C@H](Oc2ccc(C(=O)O[C@H]3CCCN(C(=O)[C@H]4COC(=O)C4)C3)cc2)c2ccc(C3CC3)cc2)no1 [Compound 53, [(3S)-1-[(3R)-5-oxotetrahydrofuran-3-carbonyl]-3-piperidyl] 4-[(1R,2S)-1-(4-cyclopropylphenyl)-2-[(5-methylisoxazole-3-carbonyl)amino]propoxy]benzoate] | > 7.00 | 
4 | * (extraction ratio (Eh)>90%) | > 7.00 | C[C@H](NC(=O)c1ccno1)[C@H](Oc1ccc(C(=O)O[C@H]2CCCN(C(=O)[C@H]3COC(=O)C3)C2)cc1)c1ccc(C2CC2)cc1 [Compound 54, [(3S)-1-[(3R)-5-oxotetrahydrofuran-3-carbonyl]-3-piperidyl] 4-[(1R,2S)-1-(4-cyclopropylphenyl)-2-(isoxazole-5-carbonylamino)propoxy]benzoate] | > 7.00 | 
5 | * (extraction ratio (Eh)>90%) | > 7.00 | C[C@H](NC(=O)c1cscn1)[C@H](Oc1ccc(C(=O)O[C@H]2CCCN(C(=O)[C@H]3COC(=O)C3)C2)cc1)c1ccc(C2CC2)cc1 [Compound 55, [(3S)-1-[(3R)-5-oxotetrahydrofuran-3-carbonyl]-3-piperidyl] 4-[(1R,2S)-1-(4-cyclopropylphenyl)-2-(thiazole-4-carbonylamino)propoxy]benzoate] | > 7.00 | 
6 | * (extraction ratio (Eh)>90%) | > 7.00 | Cc1noc(C(=O)N[C@@H](C)[C@H](Oc2ccc(C(=O)O[C@H]3CCCN(C(=O)[C@H]4COC(=O)C4)C3)cc2)c2ccc(C3CC3)cc2)n1 [Compound 56, [(3S)-1-[(3R)-5-oxotetrahydrofuran-3-carbonyl]-3-piperidyl] 4-[(1R,2S)-1-(4-cyclopropylphenyl)-2-[(3-methyl-1,2,4-oxadiazole-5-carbonyl)amino]propoxy]benzoate] | > 7.00 | 
7 | * (extraction ratio (Eh)>90%) | > 7.00 | C[C@H](NC(=O)c1ccn(C)n1)[C@H](Oc1ccc(C(=O)O[C@H]2CCCN(C(=O)[C@H]3COC(=O)C3)C2)cc1)c1ccc(C2CC2)cc1 [Compound 57, [(3S)-1-[(3R)-5-oxotetrahydrofuran-3-carbonyl]-3-piperidyl] 4-[(1R,2S)-1-(4-cyclopropylphenyl)-2-[(1-methylpyrazole-3-carbonyl)amino]propoxy]benzoate] | > 7.00 | 

Row | SMILES | HLM assay Eh (%) [1] | pIC50 [2] | pEC50 ([3]; PBMC) | pEC50 [3]
8 | C[C@H](NC(=O)c1csnn1)[C@H](Oc1ccc(C(=O)O[C@H]2CCCN(C(=O)[C@H]3COC(=O)C3)C2)cc1)c1ccc(C2CC2)cc1 [Compound 52, [(3S)-1-[(3R)-5-oxotetrahydrofuran-3-carbonyl]-3-piperidyl] 4-[(1R,2S)-1-(4-cyclopropylphenyl)-2-(thiadiazole-4-carbonylamino)propoxy]benzoate] | * (extraction ratio (Eh)>90%) | > 7.00 |  | > 7.00

Source: patent US10494363B2, “Non-steroidal glucocorticoid receptor modulators for local drug delivery” (LEO PHARMA A/S, priority 2015, dated 2019)
